# Experimental data taken from PMC6894070, “The Plasmodium falciparum Hsp70-x chaperone assists the heat stress response of the malaria parasite” (The FASEB Journal, 2019).
# Legend:
# [1] = molecular target: T1, Hsc70 (Homo sapiens, UniProt P11142); settings: 5 uM chaperone, 1 mM ATP, Mg2+, pH 8, 25 C
# T1 construct: gene HSPA8
# [2] = molecular target: T2, PfHsp70-x (Plasmodium falciparum, UniProt A0A143ZXN1); experiment: MESG-coupled ATPase assay; format: biochemical; settings: 5 uM chaperone alone, 1 mM ATP, pH 8, 25 C
# T2 construct: gene PF3D7_0831700; aa 25-679, export signal peptide excluded; codon-optimized synthetic DNA; N-terminal His6 tag cut by 3C protease; expressed in E. coli Rosetta2(DE3)
# [3] = molecular target: T2, PfHsp70-x; experiment: MESG-coupled ATPase assay; format: biochemical; settings: 5 uM chaperone alone, 1 mM ATP, pH 8, 25 C; remark: listed apart in the source
# T1 sequence (P11142 whole entry): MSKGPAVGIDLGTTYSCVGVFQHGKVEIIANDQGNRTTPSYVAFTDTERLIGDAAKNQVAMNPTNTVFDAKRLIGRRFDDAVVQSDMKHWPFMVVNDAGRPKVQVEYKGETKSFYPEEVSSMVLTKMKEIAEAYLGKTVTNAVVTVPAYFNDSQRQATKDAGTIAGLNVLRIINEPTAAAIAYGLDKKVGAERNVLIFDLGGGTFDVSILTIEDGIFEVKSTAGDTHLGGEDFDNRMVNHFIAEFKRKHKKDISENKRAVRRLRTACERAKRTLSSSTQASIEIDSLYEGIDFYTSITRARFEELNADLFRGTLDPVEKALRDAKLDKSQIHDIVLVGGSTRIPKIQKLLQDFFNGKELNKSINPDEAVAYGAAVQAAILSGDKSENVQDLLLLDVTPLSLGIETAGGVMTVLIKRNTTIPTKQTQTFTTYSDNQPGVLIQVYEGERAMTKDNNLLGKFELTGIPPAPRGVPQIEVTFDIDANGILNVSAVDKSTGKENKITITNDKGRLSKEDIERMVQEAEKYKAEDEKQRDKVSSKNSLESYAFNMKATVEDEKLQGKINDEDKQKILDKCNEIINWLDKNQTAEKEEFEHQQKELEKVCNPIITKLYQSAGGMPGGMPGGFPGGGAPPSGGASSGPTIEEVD
smiles,measurement,setting,value
Nc1ncnc2c1ncn2[C@@H]1O[C@H](COP(=O)(O)OP(=O)(O)OP(=O)(O)O)[C@@H](O)[C@H]1O [ATP],MESG-coupled ATPase assay,[1],"fold changes in ATP hydrolysis activities of PfHsp70-x (A, B) or human Hsc70 (C, D)"
"CC1(C)OC2=C(CC1Br)C(=O)C(=O)c1ccccc12 (stereo not drawn) [BBL, bromo-β-lapachona]",apparent half-maximal inhibitory concentration,[2],BBL inhibited PfHsp70-x in our ATPase assays with low micromolar apparent half-maximal inhibitory concentration
CN(C)c1ccc2nc3ccc(=[N+](C)C)cc-3sc2c1 [methylene blue],half-maximal inhibitory concentration,[3],methylene blue inhibits both basal and stimulated PfHsp70-x activity
